We go through one compound from publication PMC5391474, “Investigation of the Role of Protein Kinase D in Human Rhinovirus Replication” (Journal of Virology, 2017).

The target of test [1] is T1, PKD (PKD1) (Homo sapiens, UniProt Q15139).
T1 construct: gene PRKD1
The test is described as follows: in vitro kinase assay with purified recombinant kinase; also pS916 inhibition in PANC1 and HeLa cells. The test is classed as biochemical.

A further test has as its target T2, CK1γ2(h) (Homo sapiens, UniProt P78368).
T2 construct: gene CSNK1G2
The test is described as follows: biochemical. Also noted: in vitro kinase selectivity panel, protein and lipid kinases, single concentration, ATP at Km. Particulars: ATP at Km. As to the method: (§1) CRT0066101 was described previously ([48]) and was purchased for this study from Tocris, with a purity of 99.9%. CRT0066101 (XX-209) and compound XX-050 were synthesized as previously described ([68]). CRT0066051 (Y-095) was also synthesized as previously described ([69]). […] CRT0066101 can also be obtained in larger quantities from Ximbio. Inhibitors were tested in in vitro PKD kinase assays and cellular assays on PANC1 cells as previously described ([48]). The selectivity of the three PKD inhibitors was determined against a panel of protein and lipid kinases by Eurofins and the MRC PPU International Centre for Kinase Profiling (http://www.kinase-screen.mrc.ac.uk), respectively. Each inhibitor was tested at a single concentration of 1 μM and at an ATP concentration equivalent to the Km for each kinase. Having shown that HRV infection appears to activate PKD, we went on to explore the influence of chemical inhibitors of PKD on HRV replication. The compound CRT0066101 is a specific and potent PKD inhibitor that has been used in studies exploring its potential as an anticancer target ([48], [51]). This inhibitor has a 50% inhibitory concentration (IC50) of 1 nM against purified PKD in biochemical assays and a 50% effective concentration (EC50) of 1 μM in a cell-based assay (Table 1). We pretreated HeLa cells with increasing concentrations of the drug for 1 h followed by infection with HRV16. Viral replication was subsequently measured at 6 hpi by quantitative real-time PCR (qRT-PCR) (Fig. 2A) and by Western blotting using an antibody against the viral nonstructural protein 2C (Fig. 2B). […] Furthermore, we tested two novel and structurally different PKD inhibitors (CRT0066051 and XX-050) (Table 1) and confirmed that they too inhibited HRV 2C expression although with different potencies (Fig. 2D). Kinase selectivity profiling of all three PKD inhibitors was performed against a panel of protein and lipid kinases at a drug concentration of 1 μM and at an ATP concentration equivalent to the Km of each kinase (see Table S1 in the supplemental material). […] Since PKD is known to be involved in regulating the architecture of the Golgi apparatus, we confirmed the pharmacodynamic effect of these inhibitors by demon

The target of a further test is DGKB (Homo sapiens, UniProt Q9Y6T7). The test can be described thus: biochemical. Set-up: in vitro kinase selectivity panel, protein and lipid kinases, single concentration, ATP at Km. The conditions noted are these: ATP at Km. As to the method: as §1
The target of the next test is T3, Fms(h) (Homo sapiens, UniProt P07333).
T3 construct: gene CSF1R
The test can be described thus: biochemical. Also noted: in vitro kinase selectivity panel, protein and lipid kinases, single concentration, ATP at Km. The conditions noted are these: ATP at Km. The protocol: as §1

Another test concerns the target Axl(h) (Homo sapiens, UniProt P30530). The test can be described thus: biochemical. Set-up: in vitro kinase selectivity panel, protein and lipid kinases, single concentration, ATP at Km. Particulars: ATP at Km. As to the method: as §1
The next test has as its target Hck(h) (Homo sapiens, UniProt P08631). The test can be described thus: biochemical. The conditions noted are these: ATP at Km. Set-up: in vitro kinase selectivity panel, protein and lipid kinases, single concentration, ATP at Km. The protocol: as §1
The target of a further test is T4, TrkB(h) (Homo sapiens, UniProt Q16620).
T4 construct: gene NTRK2
The test is described as follows: biochemical. Particulars: ATP at Km. Also noted: in vitro kinase selectivity panel, protein and lipid kinases, single concentration, ATP at Km. The protocol:
as §1

A further test has as its target T5, PKCβII(h) (Homo sapiens, UniProt P05771).
T5 construct: gene PRKCB; isoform beta II
The test can be described thus: biochemical. The conditions noted are these: ATP at Km. Set-up: in vitro kinase selectivity panel, protein and lipid kinases, single concentration, ATP at Km. As to the method:
as §1

The next test addresses Fes(h) (Homo sapiens, UniProt P07332). The test is described as follows: biochemical. Also noted: in vitro kinase selectivity panel, protein and lipid kinases, single concentration, ATP at Km. Particulars: ATP at Km. The protocol:
as §1

The target in another test is T6, cSRC(h) (Homo sapiens, UniProt P12931).
T6 construct: gene SRC
The test can be described thus: biochemical. Also noted: in vitro kinase selectivity panel, protein and lipid kinases, single concentration, ATP at Km. The conditions noted are these: ATP at Km. As to the method:
as §1

Test [2] concerns the target T1, PKD (PKD1). The test can be described thus: biochemical. Also noted: in vitro kinase selectivity panel, protein and lipid kinases, single concentration, ATP at Km. The conditions noted are these: ATP at Km. The protocol:
as §1

In a further test the target is PI4K2A (Homo sapiens, UniProt Q9BTU6). The test is described as follows: biochemical. Set-up: in vitro kinase selectivity panel, protein and lipid kinases, single concentration, ATP at Km. The conditions noted are these: ATP at Km. The protocol:
as §1

The next test concerns the target T7, Abl(h) (Homo sapiens, UniProt P00519).
T7 construct: gene ABL1
The test can be described thus: biochemical. Also noted: in vitro kinase selectivity panel, protein and lipid kinases, single concentration, ATP at Km. Particulars: ATP at Km. As to the method:
as §1

A further test deals with SPHK2 (Homo sapiens, UniProt Q9NRA0). The test is described as follows: biochemical. Particulars: ATP at Km. Also noted: in vitro kinase selectivity panel, protein and lipid kinases, single concentration, ATP at Km. The protocol: as §1
Another test concerns the target T8, Aurora-A(h) (Homo sapiens, UniProt O14965).
T8 construct: gene AURKA
The test can be described thus: biochemical. Set-up: in vitro kinase selectivity panel, protein and lipid kinases, single concentration, ATP at Km. The conditions noted are these: ATP at Km. As to the method:
as §1

In a further test the target is T9, CK2(h) (Homo sapiens, UniProt P68400).
T9 construct: gene CSNK2A1
The test can be described thus: biochemical. Set-up: in vitro kinase selectivity panel, protein and lipid kinases, single concentration, ATP at Km. The conditions noted are these: ATP at Km. The protocol:
as §1

The target in a further test is T10, ZAP-70(h) (Homo sapiens, UniProt P43403).
T10 construct: gene ZAP70
The test can be described thus: biochemical. Also noted: in vitro kinase selectivity panel, protein and lipid kinases, single concentration, ATP at Km. The conditions noted are these: ATP at Km. As to the method: as §1

The target in another test is T11, PKBα(h) (Homo sapiens, UniProt P31749).
T11 construct: gene AKT1
The test is described as follows: biochemical. Also noted: in vitro kinase selectivity panel, protein and lipid kinases, single concentration, ATP at Km. Particulars: ATP at Km. The protocol:
as §1

Structures are written as SMILES.

T1 sequence (Q15139 whole entry): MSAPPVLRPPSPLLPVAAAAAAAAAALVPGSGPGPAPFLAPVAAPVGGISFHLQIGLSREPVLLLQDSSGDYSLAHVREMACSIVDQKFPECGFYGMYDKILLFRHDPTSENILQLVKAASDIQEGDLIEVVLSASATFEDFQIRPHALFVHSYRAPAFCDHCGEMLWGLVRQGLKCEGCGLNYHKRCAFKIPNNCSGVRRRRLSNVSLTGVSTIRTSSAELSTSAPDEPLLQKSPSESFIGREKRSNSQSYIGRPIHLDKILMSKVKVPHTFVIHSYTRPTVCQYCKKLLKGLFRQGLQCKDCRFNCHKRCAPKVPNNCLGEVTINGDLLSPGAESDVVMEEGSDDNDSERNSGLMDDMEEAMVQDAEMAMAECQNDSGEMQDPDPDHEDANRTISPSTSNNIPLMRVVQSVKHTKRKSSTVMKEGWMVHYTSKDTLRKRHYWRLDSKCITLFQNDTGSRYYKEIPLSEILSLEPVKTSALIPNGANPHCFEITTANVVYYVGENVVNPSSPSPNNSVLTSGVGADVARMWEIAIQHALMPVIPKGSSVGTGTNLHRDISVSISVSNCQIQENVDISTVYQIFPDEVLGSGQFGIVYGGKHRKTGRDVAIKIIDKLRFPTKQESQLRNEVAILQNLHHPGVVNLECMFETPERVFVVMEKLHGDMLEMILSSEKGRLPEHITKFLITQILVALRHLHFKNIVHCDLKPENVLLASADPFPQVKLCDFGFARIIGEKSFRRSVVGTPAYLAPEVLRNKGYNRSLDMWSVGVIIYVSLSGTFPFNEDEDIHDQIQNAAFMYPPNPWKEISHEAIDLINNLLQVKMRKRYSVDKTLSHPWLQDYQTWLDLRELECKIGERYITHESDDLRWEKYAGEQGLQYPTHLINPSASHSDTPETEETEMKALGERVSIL
T3 sequence (P07333 whole entry): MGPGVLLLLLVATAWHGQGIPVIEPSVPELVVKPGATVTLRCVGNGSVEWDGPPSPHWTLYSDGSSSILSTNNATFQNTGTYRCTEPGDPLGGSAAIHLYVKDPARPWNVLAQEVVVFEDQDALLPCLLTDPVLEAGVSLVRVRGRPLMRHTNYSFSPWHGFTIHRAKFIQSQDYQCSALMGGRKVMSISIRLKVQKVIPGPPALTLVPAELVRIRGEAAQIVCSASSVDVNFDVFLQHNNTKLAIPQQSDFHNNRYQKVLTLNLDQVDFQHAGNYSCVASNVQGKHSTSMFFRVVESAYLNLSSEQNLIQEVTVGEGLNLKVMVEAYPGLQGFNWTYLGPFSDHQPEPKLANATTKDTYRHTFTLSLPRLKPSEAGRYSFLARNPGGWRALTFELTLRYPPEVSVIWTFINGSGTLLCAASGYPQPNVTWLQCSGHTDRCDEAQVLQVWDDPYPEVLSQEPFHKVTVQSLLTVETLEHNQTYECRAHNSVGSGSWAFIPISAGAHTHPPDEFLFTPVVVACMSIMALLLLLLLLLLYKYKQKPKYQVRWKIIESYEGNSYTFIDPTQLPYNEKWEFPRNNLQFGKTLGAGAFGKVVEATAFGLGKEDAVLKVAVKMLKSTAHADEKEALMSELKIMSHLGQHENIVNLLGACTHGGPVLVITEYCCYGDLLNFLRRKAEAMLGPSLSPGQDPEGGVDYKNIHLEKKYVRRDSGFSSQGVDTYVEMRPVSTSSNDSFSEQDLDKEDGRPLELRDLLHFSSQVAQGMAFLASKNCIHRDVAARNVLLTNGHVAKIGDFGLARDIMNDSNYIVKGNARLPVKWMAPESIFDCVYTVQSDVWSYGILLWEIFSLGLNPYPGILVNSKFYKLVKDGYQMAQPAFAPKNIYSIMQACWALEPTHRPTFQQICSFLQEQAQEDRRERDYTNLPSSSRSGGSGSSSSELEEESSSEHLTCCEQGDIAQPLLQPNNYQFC
T9 sequence (P68400 whole entry): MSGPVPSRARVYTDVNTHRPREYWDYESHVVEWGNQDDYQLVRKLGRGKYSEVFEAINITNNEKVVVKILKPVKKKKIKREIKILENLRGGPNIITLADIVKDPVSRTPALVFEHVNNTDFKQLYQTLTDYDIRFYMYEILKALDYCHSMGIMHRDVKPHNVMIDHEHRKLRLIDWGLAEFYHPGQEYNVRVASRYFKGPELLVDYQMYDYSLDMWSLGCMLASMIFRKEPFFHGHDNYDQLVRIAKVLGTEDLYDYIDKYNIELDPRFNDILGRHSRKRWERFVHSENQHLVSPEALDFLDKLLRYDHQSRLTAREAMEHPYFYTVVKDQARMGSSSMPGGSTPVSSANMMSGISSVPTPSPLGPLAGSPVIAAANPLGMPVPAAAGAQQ
T9 sequence (P67870 whole entry partner): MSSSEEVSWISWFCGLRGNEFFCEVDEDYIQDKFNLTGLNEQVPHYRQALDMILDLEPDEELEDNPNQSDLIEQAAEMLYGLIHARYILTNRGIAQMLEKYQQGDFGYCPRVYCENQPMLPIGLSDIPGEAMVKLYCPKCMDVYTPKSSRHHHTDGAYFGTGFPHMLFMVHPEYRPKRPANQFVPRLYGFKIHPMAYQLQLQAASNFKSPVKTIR
T11 sequence (P31749 whole entry): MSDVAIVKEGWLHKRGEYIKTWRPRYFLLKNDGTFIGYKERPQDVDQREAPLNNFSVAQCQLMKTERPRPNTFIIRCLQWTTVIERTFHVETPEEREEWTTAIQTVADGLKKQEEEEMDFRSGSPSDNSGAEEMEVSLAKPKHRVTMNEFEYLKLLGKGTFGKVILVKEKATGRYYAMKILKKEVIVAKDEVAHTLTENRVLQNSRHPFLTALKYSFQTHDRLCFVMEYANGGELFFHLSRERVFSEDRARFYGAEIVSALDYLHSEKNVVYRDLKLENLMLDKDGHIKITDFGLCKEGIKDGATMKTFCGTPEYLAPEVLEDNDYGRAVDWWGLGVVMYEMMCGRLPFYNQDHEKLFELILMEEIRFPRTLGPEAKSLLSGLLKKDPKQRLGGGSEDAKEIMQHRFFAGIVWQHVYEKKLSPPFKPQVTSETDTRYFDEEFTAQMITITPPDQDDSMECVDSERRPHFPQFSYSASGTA
T10 sequence (P43403 whole entry): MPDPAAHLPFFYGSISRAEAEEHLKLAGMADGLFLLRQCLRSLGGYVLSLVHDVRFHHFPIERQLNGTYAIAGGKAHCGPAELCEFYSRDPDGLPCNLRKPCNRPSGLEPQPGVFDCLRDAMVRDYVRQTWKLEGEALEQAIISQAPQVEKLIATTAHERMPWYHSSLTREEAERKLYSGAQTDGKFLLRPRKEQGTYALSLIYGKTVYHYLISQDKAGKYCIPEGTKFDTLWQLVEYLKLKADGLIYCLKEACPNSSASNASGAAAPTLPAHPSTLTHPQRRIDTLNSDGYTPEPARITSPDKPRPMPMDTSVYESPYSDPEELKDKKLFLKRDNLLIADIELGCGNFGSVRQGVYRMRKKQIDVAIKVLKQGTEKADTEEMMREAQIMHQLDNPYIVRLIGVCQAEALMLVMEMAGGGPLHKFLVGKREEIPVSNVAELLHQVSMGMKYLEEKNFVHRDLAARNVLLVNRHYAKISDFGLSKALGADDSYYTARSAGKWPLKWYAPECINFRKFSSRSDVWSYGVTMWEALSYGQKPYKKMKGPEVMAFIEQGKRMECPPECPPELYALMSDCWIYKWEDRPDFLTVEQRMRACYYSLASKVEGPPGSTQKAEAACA
T7 sequence (P00519 whole entry): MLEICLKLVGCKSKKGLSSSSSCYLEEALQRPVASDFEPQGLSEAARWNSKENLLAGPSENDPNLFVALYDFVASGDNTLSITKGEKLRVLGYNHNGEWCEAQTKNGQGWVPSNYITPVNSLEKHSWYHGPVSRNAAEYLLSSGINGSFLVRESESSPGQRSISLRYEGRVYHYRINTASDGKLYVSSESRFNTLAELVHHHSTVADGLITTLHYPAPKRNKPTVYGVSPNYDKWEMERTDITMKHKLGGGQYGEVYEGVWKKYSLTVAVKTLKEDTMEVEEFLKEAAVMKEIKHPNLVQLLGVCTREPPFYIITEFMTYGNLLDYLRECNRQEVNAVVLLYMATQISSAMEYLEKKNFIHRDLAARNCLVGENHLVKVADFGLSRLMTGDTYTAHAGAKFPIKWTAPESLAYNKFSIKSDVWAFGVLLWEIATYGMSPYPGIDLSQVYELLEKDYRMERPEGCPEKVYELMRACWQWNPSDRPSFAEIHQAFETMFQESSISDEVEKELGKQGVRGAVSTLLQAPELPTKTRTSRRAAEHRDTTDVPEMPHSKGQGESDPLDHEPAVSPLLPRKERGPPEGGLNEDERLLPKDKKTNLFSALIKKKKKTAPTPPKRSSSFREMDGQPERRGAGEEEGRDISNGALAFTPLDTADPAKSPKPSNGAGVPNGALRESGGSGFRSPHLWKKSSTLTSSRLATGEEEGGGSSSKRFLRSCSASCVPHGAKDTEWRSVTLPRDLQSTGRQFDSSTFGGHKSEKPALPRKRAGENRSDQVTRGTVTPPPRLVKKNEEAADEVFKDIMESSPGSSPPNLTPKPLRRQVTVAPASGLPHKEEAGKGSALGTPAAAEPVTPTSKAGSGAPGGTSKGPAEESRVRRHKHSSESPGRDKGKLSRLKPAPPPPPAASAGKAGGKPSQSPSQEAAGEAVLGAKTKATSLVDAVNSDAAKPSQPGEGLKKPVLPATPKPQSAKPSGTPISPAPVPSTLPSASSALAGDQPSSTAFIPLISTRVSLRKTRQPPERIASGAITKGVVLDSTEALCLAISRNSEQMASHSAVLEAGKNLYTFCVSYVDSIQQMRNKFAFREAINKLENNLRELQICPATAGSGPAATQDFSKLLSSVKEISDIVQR

With `CC[C@@H](N)CNc1ccnc(-c2cc(-c3cnn(C)c3)ccc2O)n1` [CRT0066101], the 50% inhibitory concentration (IC50) at PKD (PKD1) [1] is 1 nM. In addition, the inhibition at 1 µM is 0% on CK1γ2(h); -9% against DGKB; 12% against Fms(h); 39% against Axl(h); 4% against Hck(h); 15% at TrkB(h). Also, the inhibition at 1 µM against PKCβII(h) is -1%; against Fes(h), -20%; at cSRC(h) it was 3%; against PKD (PKD1) [2] it was 98%; at PI4K2A it was 4%; against Abl(h), -13%. For the same compound, the inhibition at 1 µM against SPHK2 was 20%; against Aurora-A(h), -1%; against CK2(h), 19%; against ZAP-70(h) it was -19%; at PKBα(h), -6%.

A word on the IC50: it is the concentration at which inhibition is half-maximal. The inhibition is the change of the read-out against control, counted positive when it falls.
